{
  "source": "patent US5632988A",
  "about": "“Polypeptide inhibitors of gamma interferon” (Schering Corporation, priority 1992, dated 1997)",
  "molecules": {"B1": {"name": "Recombinant human gamma interferon D: recombinant human gamma interferon D prepared from transformed E. coli, stimulus in antiviral and HLA-DR assays (protein, UniProt P01579 24-161, looked up)", "Interferon gamma": "QDPYVKEAENLKKYFNAGHSDVADNGTLFLGILKNWKEESDRKIMQSQIVSFYFKLFKNFKDDQSIQKSVETIKEDMNVKFFNSNKKKRDDFEKLTNYSVTDLNVQRKAIHELIQVMAELSPAAKTGKRKRSQMLFRG", "modifications": "E. coli recombinant", "notes": "recombinant human gamma interferon D prepared from transformed E. coli, stimulus in antiviral and HLA-DR assays"}},
  "key": {"[1]": {"biological_target": "T1, gamma interferon receptors on Daudi cells (Homo sapiens, UniProt P15260)", "T1 construct": "host or cells: Daudi cells (human B lymphoblast, Burkitt lymphoma)", "T1 sequence (P15260 18-489)": "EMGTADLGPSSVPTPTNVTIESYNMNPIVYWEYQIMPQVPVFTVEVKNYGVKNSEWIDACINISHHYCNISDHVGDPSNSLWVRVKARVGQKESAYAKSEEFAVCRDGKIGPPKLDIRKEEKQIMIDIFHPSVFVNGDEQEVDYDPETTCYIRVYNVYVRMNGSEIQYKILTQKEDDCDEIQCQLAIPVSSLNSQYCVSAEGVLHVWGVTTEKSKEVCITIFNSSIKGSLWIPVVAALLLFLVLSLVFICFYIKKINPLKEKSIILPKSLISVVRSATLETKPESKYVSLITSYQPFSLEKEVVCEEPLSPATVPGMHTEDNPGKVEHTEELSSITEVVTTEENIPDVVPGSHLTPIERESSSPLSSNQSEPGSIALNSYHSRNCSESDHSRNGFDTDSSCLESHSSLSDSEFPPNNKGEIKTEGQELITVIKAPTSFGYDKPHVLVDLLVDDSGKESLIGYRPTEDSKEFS", "assay": "Inhibition of the binding of 125I-recombinant human gamma interferon to Daudi cells (radioligand-receptor assay)", "conditions": "for Ki: specific binding of 125I-recombinant human gamma interferon to Daudi cells, 2 hours at 4° C., Cheng et al. method; for inhibition of the binding of the labeled interferon (in words; type of inhibition): FIGS. 1-4", "protocol": "The receptor assay employed a standard mixture of 6×10^5 Daudi cells in 1 ml of binding medium (RPMI 1640 medium, 10% fetal bovine serum, 0.02% sodium azide) containing 200,000 cpm of the labeled interferon. Controls additionally contained 1 μg of unlabeled interferon to determine nonspecific binding. Assays were carried out by adding 0.1 ml aliquots of binding medium with or without varying amounts of a potentially inhibitory polypeptide or protein to the standard mixtures, and incubating the combined mixtures for 2 hours at 4° C.\nFollowing the incubation, the cells were pelleted by centrifugation at 13,000× g for 30 seconds at 4° C, and the supernatants were discarded. The cells were resuspended in 0.2 ml of fresh binding medium without labeled interferon at 4° C., after which the cells were centrifuged at 13,000× g for 2 minutes through a layer of dibutyl phthalate and dioctyl phthalate [0.2 ml of a 1:1 (vol/vol) mixture] to remove residual labeled interferon that was not specifically bound. Inhibition constants (Ki) were calculated according to the method of Cheng et al. [Biochem. Pharmacol. 22:3099 (1973)], in which [formula] where [L] is the ligand concentration and IC50 is the concentration of inhibitor required to decrease binding by 50%."}, "[2]": {"test_system": "murine encephalomyocarditis virus", "assay": "Antiviral activity assay, human diploid foreskin cells infected with murine encephalomyocarditis virus (Rubinstein et al.)", "type": "cell-based", "source_text": "It also is a potent inducer of the maturational differentiation of pro-monocytes to premacrophages. […] 37:755 (1981)]. […] 132:240 (1984)]."}, "[3]": {"test_system": "antiviral effects of recombinant human gamma interferon D", "assay": "Inhibition of antiviral effects of recombinant human gamma interferon D on human diploid foreskin cells challenged with encephalomyocarditis virus (CPE scoring)", "type": "cell-based", "protocol": "Control Medium A, various dilutions in Medium A of recombinant human gamma Interferon D in the presence of a fixed concentration of polypeptide No. I, or various dilutions of Medium A of polypeptide No. III in the presence of a fixed concentration of the interferon were pipetted in 0.1 ml total volumes into the wells of 96-well flat bottom microtiter plates.\nAliquots of a suspension of human diploid foreskin cells (0.1 ml, 3.5×10^5 cells/ml) in Medium A were pipetted into the wells of the microtiter plates, and the plates were incubated for 4 hours in a 37° C., 5% CO2 incubator. […]\nA 0.025-0.05 aliquot of a solution of crystal violet stain (Sigma Chemical Co., St. Louis, Mo.; 0.485% in an aqueous solution containing 3.2% formaldehyde and 32.3% 95% ethanol) was added to each well, and the plates were allowed to stand for 30 minutes for color development. The stain solution was removed and the wells were washed at least three times with distilled water, after which the plates were scored for CPE with the aid of a fluorescent light viewer.\nCPE was graded semi-quantitatively on a scale of 0 to 4, with grade O CPE corresponding to a complete absence of cell lysis as measured by cell staining with crystal violet and grade 4 CPE corresponding to total cell lysis and lack of staining."}},
  "note": "Ends that are not written are not given here.",
  "data": [
    {"molecule": "poly(L-glutamic acid)", "values": [
      {"measurement": "Ki", "setting": "[1]", "value": 290, "unit": "nM"}
    ]},
    {"molecule": "poly(D-lysine)", "values": [
      {"measurement": "inhibition of the binding of the labeled interferon (in words; type of inhibition)", "setting": "[1]; Daudi cells", "value": "strong competitive inhibitors"},
      {"measurement": "Ki", "setting": "[1]", "value": 190, "unit": "nM"}
    ]},
    {"molecule": "AKKLSKDRMKKYMARRKWQKTGHAV [Polypeptide I]", "values": [
      {"measurement": "Kd of labeled interferon in the presence of polypeptide (Scatchard analysis)", "setting": "[1]; 5 μM polypeptide, Daudi cells", "value": "marked increase"}
    ]},
    {"molecule": "protamine sulfate", "values": [
      {"measurement": "Ki", "setting": "[1]", "value": 1100, "unit": "nM"}
    ]},
    {"molecule": "poly(L-lysine)", "values": [
      {"measurement": "inhibition of the binding of the labeled interferon (in words; type of inhibition)", "setting": "[1]; Daudi cells", "value": "strong competitive inhibitors"},
      {"measurement": "Ki", "setting": "[1]", "value": 11000, "unit": "nM"}
    ]},
    {"molecule": "B1", "values": [
      {"measurement": "antiviral specific activity", "setting": "[2]", "value": "about 4×10^6 units/mg"},
      {"measurement": "CPE grade", "setting": "[3]; interferon alone, 30 pM, scale 0 to 4", "value": 2},
      {"measurement": "cell protection / CPE", "setting": "[3]; interferon alone, 1,200 pM", "value": "complete cell protection"}
    ]}
  ]
}
